# Data reported in patent US20060216253A1, “Whitening cosmetics containing morus alba extracts” (Time and Cross, Inc., priority 2005, published 2006).
# Assays:
# Mushroom Tyrosinase [1] = assay: Inhibitory effects on mushroom tyrosinase (dopachrome, OD490, 15 min); format: biochemical
# Protocol: (§1) L-Tyrosine, the substrate for tyrosinase, was dissolved in 50 mM sodium phosphate buffer (pH6.8) to prepare a solution of 0.1 mg/mL L-tyrosine. […] 100 μL of the L-tyrosine solution was introduced into a test tube, and 100 μL of 50 mM sodium phosphate buffer (pH6.8) with or without test samples were added thereto, and then 10 μL of 200 U/mL tyrosinase were mixed and incubated at 37° C. for 15 min.
# The amount of dopachrome in the reaction mixture was determined spectrophotmetrically using absorbance measurement at 490 nm.
# Murine Tyrosinase = biological target: T1, Murine Tyrosinase (Mus musculus, UniProt P11344); assay: Inhibitory effects on murine tyrosinase prepared from melanoma B-16 cells; format: biochemical; details: tyrosinase from melanoma B-16 cells
# T1 construct: supernatant was dialyzed against 50 mM sodium phosphate buffer (pH 6.8) and then used as a source of murine tyrosinase; endogenous in cells; host or cells: murine melanoma B-16 cells (Triton X-100 extract, dialysed supernatant)
# T1 sequence (P11344 19-533): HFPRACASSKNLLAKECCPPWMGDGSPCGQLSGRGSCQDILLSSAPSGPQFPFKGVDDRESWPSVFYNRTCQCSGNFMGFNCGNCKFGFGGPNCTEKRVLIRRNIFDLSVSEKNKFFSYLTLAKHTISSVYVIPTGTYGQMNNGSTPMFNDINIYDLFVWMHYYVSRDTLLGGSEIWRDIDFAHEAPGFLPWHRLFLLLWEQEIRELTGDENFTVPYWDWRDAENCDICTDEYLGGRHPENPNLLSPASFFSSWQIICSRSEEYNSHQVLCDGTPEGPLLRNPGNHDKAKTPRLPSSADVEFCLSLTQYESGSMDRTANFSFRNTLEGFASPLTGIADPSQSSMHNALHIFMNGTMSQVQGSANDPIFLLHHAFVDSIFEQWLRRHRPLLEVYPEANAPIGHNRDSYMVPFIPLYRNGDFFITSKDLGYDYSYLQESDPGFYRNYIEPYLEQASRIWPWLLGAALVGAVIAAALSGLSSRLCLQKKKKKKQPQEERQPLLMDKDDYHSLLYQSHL
# Protocol: Murine tyrosinase was prepared from the melanoma B-16 cell line. Murine melanoma B-16 cells were grown in DMEM (13.4 mg/mL of Dulbecco's modified Eagle's medium, 24 mM NaHCO3, 10 mM HEPES, 143 units/mL of penicillin G potassium, 160 μg/mL of streptomycin sulfate, pH 7.1) containing 10% fetal bovine serum (FBS) with 5% CO2 at 37° C. When the cells were confluent, melanoma cells were removed from culture dishes and washed once with PBS buffer. The cell suspension was centrifuged at 250×g for 10 min at 4° C. The cell pellet was suspended in 0.5 mL of 50 mM sodium phosphate buffer (pH 6.8) containing 0.1 mM phenylmethylsulfonyl fluoride and 0.5% Triton X-100. The cell suspension was sonicated six times for 30 sec each with 1 min intervals and then incubated at 4° C. for 1 hr to solubilize the tyrosinase. After centrifugation at 50,000×g for 20 min at 4° C., supernatant was dialyzed against 50 mM sodium phosphate buffer (pH 6.8) and then used as a source of murine tyrosinase.
# As in the mushroom tyrosinase experiment discussed above, the amount of dopachrome in the reaction mixture was determined spectrophotmetrically using absorbance measurement at 490 nm.
# Human Tyrosinase = biological target: T2, Human Tyrosinase (Homo sapiens, UniProt P14679); assay: Inhibitory effects on human tyrosinase prepared from HM3KO human melanoma cells; format: biochemical
# T2 construct: endogenous in cells; host or cells: HM3KO human melanoma cells (Triton X-100 extract, dialysed supernatant)
# T2 sequence (P14679 19-529): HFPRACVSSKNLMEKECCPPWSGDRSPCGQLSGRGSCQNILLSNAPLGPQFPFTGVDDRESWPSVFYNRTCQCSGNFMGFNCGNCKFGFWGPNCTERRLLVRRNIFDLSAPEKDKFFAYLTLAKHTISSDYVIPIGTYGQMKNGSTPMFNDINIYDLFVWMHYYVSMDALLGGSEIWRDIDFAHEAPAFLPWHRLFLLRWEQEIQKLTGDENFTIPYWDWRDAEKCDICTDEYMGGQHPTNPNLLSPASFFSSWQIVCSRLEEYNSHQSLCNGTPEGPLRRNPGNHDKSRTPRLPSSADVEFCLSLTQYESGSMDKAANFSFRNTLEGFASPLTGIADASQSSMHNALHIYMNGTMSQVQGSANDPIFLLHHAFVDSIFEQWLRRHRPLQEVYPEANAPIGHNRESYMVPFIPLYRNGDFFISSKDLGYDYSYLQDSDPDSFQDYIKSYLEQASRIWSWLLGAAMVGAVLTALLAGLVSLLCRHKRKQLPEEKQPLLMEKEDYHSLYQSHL
# Protocol: Human tyrosinase was prepared from the HM3KO human melanoma cell line. HM3KO cells were cultured in modified Eagles medium supplemented with 10% fetal calf serum. Cultured cells were removed from culture dishes and washed once with PBS buffer and centrifuged. The cell pellet was sonicated in 100 mM sodium phosphate buffer (pH6.8) containing 0.1 mM phenylmethylsulfonyl fluoride (PMSF) and 1% Triton X-100, incubated in ice for 1 hr to solubilize the tyrosinase, and centrifuged. The supernatant was dialyzed against 50 mM sodium phosphate buffer (pH 6.8) and then used as the source of human tyrosinase for use in our inhibition assays.
# As in the mushroom and murine tyrosinase experiments discussed above, the amount of dopachrome in the reaction mixture was determined spectrophotmetrically using absorbance measurement at 490 nm.
# [2] = test system: murine melanoma B16 cells; assay: Melanin production in murine melanoma B-16 cells; format: cell-based; details: for Melanin production (%): B16 cells, 3 days
# Protocol: The melanoma cell line was grown in DMEM culture medium containing 4.5 g of glucose/l, 10% fetal bovine serum and 1% antibiotic agent and cultivated at 37° C. under a condition of 5% CO2. The cell suspension was inoculated in a 50 mL T-flask (3×10^5 cells/mL) and the cells were allowed to completely adhere to the plate for 24 hr. Then, test samples diluted in DMEM medium at concentrations of 1, 5, 10, 50, and 100 μg/mL were added to the cultivated cells, and the mixture was cultivated at 5% CO2 and 37° C. for 3 days. After cultivation, culture medium was thoroughly removed and the cells were isolated via trypsin treatment. The suspensions were then centrifuged for 5 min to collect cells. The obtained cells were treated with 5% trichloroacetic acid (TCA), stirred and centrifuged. The precipitated melanin was washed with phosphate buffered saline (PBS), and treated with 1 N NaOH to dissolve the melanin therein. Absorbance at 475 nm was measured. Melanin concentration was determined from a standard concentration curve of synthetic melanin (SIGMA Co., USA).
# melan-a cell line = assay: Melanin production in melan-a cell line; format: cell-based; details: melan-a cells; for Melanin production (%): 72 hr
# Protocol: Melan-a cells were grown in 10 mL of RPMI 1640 medium supplemented with antibiotics, 10% fetal bovine serum (FBS), and 20 nM TPA. The cell suspension was inoculated in a 24-well plate (10^5 cells/mL) and the cells were allowed to completely adhere to the plate for 24 hr. Test samples dissolved in DMSO were added to the plate and incubated at 37° C. for 72 hr in a CO2 incubator. The culture medium was then thoroughly removed and the cells were isolated through trypsin treatment. The suspensions were then centrifuged for 5 min to collect cells, which were then treated with 5% trichloroacetic acid (TCA), stirred and centrifuged to precipitate the melanin. Melanin was washed with PBS and dissolved in 1 N NaOH. Absorbance at 475 nm was measured. Melanin concentration was determined from a standard concentration curve of synthetic melanin (SIGMA Co., USA).
# Mushroom Tyrosinase [3] = assay: Extended duration of mushroom tyrosinase inhibition (up to 24 hours); format: biochemical
# Protocol: as §1
# Using the experimental conditions described in the Mushroom Tyrosinase experiment described above, the reaction mixtures, containing various concentrations from 1 μg/mL to 50 μg/mL of the agents assayed, were incubated at 37° C. and spectrophotometric measurements of dopachrome were made at time intervals of up to 24 hours.
# tyrosinase mRNA = assay: RT-PCR analysis of tyrosinase mRNA in murine melanoma B-16 cells; format: cell-based; details: FIG. 5
# Protocol: To elucidate the mechanism by which Morus alba extract and mulberroside A exerts its effect, RT-PCR analysis was performed. mRNA from cultured murine melanoma B-16 cells were isolated using a Promega polytract system 1000 mRNA isolation kit. Approximately 80 to 100 μg of mRNA was isolated from 10^8 cells. We synthesized the 3′ primer 5′[…]3′ (nucleotides 197-216 from the ATG start codon) and the 5′ primer 5′[…]3′ (nucleotides 669-688 from the ATG start codon) for use in the RT-PCR analysis of tyrosinase mRNA.
# This mixture was incubated for 1 minute at 94° C., then for 30 seconds at 55° C. and finally for 10 minutes at 72° C.
# For PCR amplification of cDNA, 80 μL of a PCR mixture containing 8 μL of 10× chelating buffer, 1 mM MgCl2 and 50 pmole of 5′ primer was added to the reverse transcription reaction mixture. DNA amplification was performed on a Perkin Elmer Gene Amp PCR system 2400 thermal cycler. The PCR cycle conditions included melting for 30 sec at 94° C., annealing for 30 sec at 55° C., and extension for 1 min at 72° C. The PCR ran for 28 cycles, and the products (492 bp) were analyzed by 2% agarose gel electrophoresis. As an internal control, mouse β-actin mRNA was also amplified using the mouse β-actin amplimer set (Clontech, USA).
# melanocytes = assay: Microscopic observation of pigmentation of confluent melanocyte monolayer; format: cell-based; details: cell line not specified
# Description: The pigmentation of a confluent monolayer of melanocytes is visible microscopically, as the cells contain black melanin pigment.
structure (smiles),measurement,setting,value
"OC[C@H]1O[C@@H](Oc2cc(O)cc(/C=C/c3ccc(O[C@@H]4O[C@H](CO)[C@@H](O)[C@H](O)[C@H]4O)cc3O)c2)[C@H](O)[C@@H](O)[C@@H]1O [Mulberroside A, mulberroside A]",IC50,"Mushroom Tyrosinase [1]; 37° C., 15 min, L-tyrosine substrate",9.5 µM
same,inhibitory effect on mushroom tyrosinase (in words),Mushroom Tyrosinase [1]; FIGS. 1 and 2,the most potent inhibitors of mushroom tyrosinase
same,IC50,Murine Tyrosinase,61.5 µM
same,IC50,Human Tyrosinase,76.8 µM
same,Melanin production (%),[2]; 1 μg/mL,98.3 ± 1.0%
same,Melanin production (%),[2]; 5 μg/mL,92.4 ± 2.1%
same,Melanin production (%),[2]; 10 μg/mL,91.2 ± 7.3%
same,Melanin production (%),[2]; 50 μg/mL,59.8 ± 9.0%
same,Melanin production (%),[2]; 100 μg/mL,21.8 ± 5.4%
same,reduction in melanin production,"[2]; melanoma B-16 cells, 100 μg/mL",78.2%
same,Melanin production (%),melan-a cell line; 1 μg/mL,98.5 ± 7.2%
same,Melanin production (%),melan-a cell line; 5 μg/mL,93.6 ± 4.8%
same,Melanin production (%),melan-a cell line; 10 μg/mL,92.8 ± 6.5%
same,Melanin production (%),melan-a cell line; 50 μg/mL,61.2 ± 8.0%
same,reduction in melanin production,melan-a cell line; 100 μg/mL,76.3%
same,Melanin production (%),melan-a cell line; 100 μg/mL,23.7 ± 3.8%
same,fold stronger inhibitory effect on tyrosinase activity than kojic acid,Mushroom Tyrosinase [3]; from IC50 values after 24 hours incubation,12 fold
same,IC50,"Mushroom Tyrosinase [3]; read-out: IC50 for tyrosinase inhibition after 24 hours incubation, 24 hours incubation",20 µM
same,amount of tyrosinase mRNA,tyrosinase mRNA,decreased the amount of tyrosinase mRNA in a dose-dependent manner
same,pigmentation of treated cells observed microscopically,melanocytes,Reduced pigmentation
